Experiments:
Type in all cases: cell-based
neocortex = assay: action potential threshold in mouse brain slice recordings
Description: (§1) A mouse brain slice was used to study the effects of Menthol, Linalool (another transient receptor potential M8 (TRPM8) channel agonist) and Icilin. The amygdaloid complex is located within the medial temporal lobe in neocortex and amygdala. The lateral and basolateral nuclei of the amygdaloid complex receive sensory information from cortical and thalamic structures, process the information, and then transmit the information, either directly or through the basal nucleus, to the central nucleus. For experimental analysis of neuronal activity, synaptic responses from the basolateral complex can be evoked electrically using electrodes, and the action potentials can be measured.

[1] = test system: Lateral Amygdala glutamatergic neuron (in a mouse brain slice); assay: whole cell, current clamp recordings, 2.5 s square pulse at high depolarization (approximately −30 mV); settings: for inactivation of the sodium fast channels / neuronal firing: square pulse of 2.5 s at high depolarization of membrane potential (approximately −30 mV), relative to control, FIG. 2
Description: as §1, with “measured. […] A square pulse of 2.5 s was applied at high depolarization of membrane potential (approximately −30 mV).” for “measured.”

[2] = test system: Lateral Amygdala glutamatergic neuron (in a mouse brain slice); assay: whole cell, current clamp recordings with increasing concentration of gabazine (spontaneous action potential bursts); settings: Menthol 250 μM applied extracellularly 10 minutes previous to and during increasing concentrations of gabazine; FIG. 5 compared to FIG. 3
Description: as §1, with “measured. […] As shown, neurons spontaneously present action potential bursts due to massive presynaptic discharges.” for “measured.”

| SMILES | amount of current required to trigger an action potential (neocortex) | threshold to trigger an action potential (neocortex) | action potentials at higher stimulation levels [1] | inactivation of the sodium fast channels / neuronal firing [1] | spontaneous action potential bursts [2] |
| --- | --- | --- | --- | --- | --- |
| O=C1NC(c2cccc([N+](=O)[O-])c2)=CCN1c1ccccc1O [Icilin] | increase the amount of current required to trigger an action potential | increase the threshold to trigger an action potential | abort action potentials at higher stimulation levels | inactivation of the sodium fast channels happens sooner relative to control | – |
| C=CC(C)(O)CCC=C(C)C (stereo not shown) [Linalool] | – | – | – | inactivation of the sodium fast channels happens sooner relative to control | – |
| CC1CCC(C(C)C)C(O)C1 (stereo not shown) [Menthol] | increase the amount of current required to trigger an action potential | increase the threshold to trigger an action potential | abort action potentials at higher stimulation levels | inactivation of the sodium fast channels happens sooner relative to control | complete absence or a strongly decreased presence of spontaneous bursts |

Source: patent publication US20160108005A1, “TREATMENT OR PREVENTION OF DEPRESSION USING MENTHOL AND/OR ICILIN” (NESTEC S.A., priority 2013, published 2016)
